Source: patent publication US20030175824A1, “Drug candidate screening systems based on micropatterned hydrogels and microfluidic systems” (priority 2002, published 2003)

Tested on: murine 3T3 fibroblasts
Settings: 0.05% sodium azide in PBS; cells stained red
Experimental: Hydrogel microstructures encapsulating murine 3T3 fibroblasts were fabricated using proximity photolithography. A PEG-diacrylate (PEG-DA, MW 575, Sigma-Aldrich or MW 4000, Polysciences) precursor solution containing 0.5% (w/w) DAROCUR 1173 (1-phenyl-2-hydroxy-2-methyl-1-propanone, Ciba Specialty Chemicals) as a photoinitiator was mixed with a cell suspension in cell culture media to produce a cell density about 4 to 5×10^6 cells/mL in the gel precursor solution. Fibroblasts were cultured on tissue culture polystyrene in Dulbecco's modified Eagle media (DMEM with 4.5 g/L glucose and 10% FBS, Sigma-Aldrich) and incubated at 37° C. in 5% CO2 and 95% air until near confluence. Cells were detached from culture flasks by trypsinization with 0.25% trypsin and 0.13% EDTA in phosphate buffered saline. Cells were transferred back to cell culture media and then added to the gel precursor solution. […]
The viability of individual cells in hydrogel microstructures with diameters of 600 μm and 50 μm was investigated using Live/Dead Viability/Cytotoxicity fluorescence assay (Molecular Probes, Inc.) that stains live cells green and dead cells red. […]
The viability of cells encapsulated in hydrogel was also measured using an MTT (3(4,5-dimethylthiazol-2-yl)-2,5-diphenyl tetrazolium bromide) assay.

[N-]=[N+]=[N-] [sodium azide]
effect on encapsulated cells (control, LIVE/DEAD staining): killed the cells
